Here are results for 5 molecules from patent publication US7091197B2, “Beta-lactamase inhibitor prodrug” (Pfizer Inc., priority 2002, dated 2006).

Structures are written as SMILES. ≈ marks a conversion by molar mass, not a printed value. Marks after values point to notes of the source that are not given here.

Data set [1] relates to 21 penicillin-resistant strains of S. pneumoniae. Put plainly: microbe, parasite or virus in culture. Conditions: Streptococcus pneumoniae; some S. pneumoniae clinical isolates; read-out: MICs of strains with high-level resistance. It is filed as cell-based.
For data set [2], the system named is Moraxella catarrhalis (87A1115). The data set can be described thus: Murine systemic infection model, M. catarrhalis. It is filed as in vivo. Conditions: 96 h, oral, single agent, M. catarrhalis 87A1115, survival day 4.
The subject of data set [3] is Streptococcus pneumoniae (02J1095). The data set can be described thus: Mouse pneumonia model, S. pneumoniae 02J1095. Conditions: 240 h, oral, single agent, survival day 10. It is filed as in vivo.
The test system of data set [4] is Streptococcus pneumoniae (02J1016). The data set can be described thus: Mouse pneumonia model, S. pneumoniae 02J1016. It is filed as in vivo. Conditions: 240 h, oral, single agent, survival day 10.
Data set [5] has as its system Haemophilus influenzae (54A1218). Put plainly: Gerbil otitis media model, H. influenzae. It is filed as in vivo.
The test system of data set [6] is Klebsiella pneumonaie (53A0031). The data set can be described thus: Murine systemic infection model, K. pneumoniae. It is filed as in vivo. Conditions: 96 h, oral, single agent, K. pneumoniae 53A0031, survival day 4.
In data set [7] the test system is Staphylococcus aureus (01A0400). The data set can be described thus: Murine systemic infection model, S. aureus. It is filed as in vivo. Conditions: 96 h, oral, single agent, S. aureus 01A0400, survival day 4.
In data set [8] the test system is Eschericia coli (51A0257). Put plainly: Murine systemic infection model, E. coli. It is filed as in vivo. Conditions: Escherichia coli, 96 h, oral, single agent, E. coli 51A0257, survival day 4.
Data set [9] relates to Haemophilus influenzae (54A1218). The data set can be described thus: Murine systemic infection model, H. influenzae. It is filed as in vivo. Conditions: 96 h, oral, single agent, H. influenzae 54A1218, survival day 4.
For data set [10], the target named is T1, BRO-2 β-lactamase (M. catarrhalis 87A1178 ATCC43617) (Moraxella catarrhalis, UniProt Q59514).
T1 sequence (Q59514 1-313 D293G): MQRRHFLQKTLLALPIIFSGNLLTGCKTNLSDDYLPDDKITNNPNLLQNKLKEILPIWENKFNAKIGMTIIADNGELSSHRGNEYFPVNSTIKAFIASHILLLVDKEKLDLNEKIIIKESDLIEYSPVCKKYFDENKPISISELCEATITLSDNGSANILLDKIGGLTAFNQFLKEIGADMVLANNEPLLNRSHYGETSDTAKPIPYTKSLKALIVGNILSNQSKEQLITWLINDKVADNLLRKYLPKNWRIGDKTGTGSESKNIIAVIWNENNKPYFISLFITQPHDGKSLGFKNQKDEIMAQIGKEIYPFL
The data set can be described thus: β-lactamase inhibition in cell extracts, BRO-2. It is filed as biochemical.

For data set [11] the following is noted: clavulanate in the Augmentin suspension; room temperature, 10 days; cited from earlier work.
The conditions of data set [12]: in vivo, cited from earlier work.
The nature of data set [13]: Chemical (pH) stability in solution. It is filed as physicochemical. The protocol: Buffers were appropriately formulated to achieve the desired pH of each incubation. […] The temperature of the incubation was regulated with a 96-well heat block. Incubations were performed at 25° C. and 37° C. […] An apparent first-order half-life could then be estimated as ln 2/kd.

Data set [14] concerns the target BRO-1 and BRO-2 enzymes (Moraxella catarrhalis, UniProt Q59514). The data set can be described thus: β-lactamases from 30 recent clinical isolates of M. catarrhalis. It is filed as biochemical. Conditions: BRO-1 and BRO-2 enzymes from 30 recent clinical isolates of M. catarrhalis.
The target of data set [15] is E. coli TEM-1 beta-lactamase (Escherichia coli, UniProt P62593). Put plainly: Beta-lactamase inhibitory activity at intestinal pH values. It is filed as biochemical.
A short description of data set [16]: Prodrug 3 suspension stability (0.5% methylcellulose). It is filed as physicochemical. Conditions: for Potency (percent) in suspension: 1.51 mg/ml, un-buffered 0.5% methylcellulose, 25° C.
Data set [17] can be described thus: in vitro. Conditions: plasma. The protocol:
The incubation consisted of 990 μl of plasma preincubated for 5 minutes at 37° C. in a 96-well heat block. The incubation was initiated with the addition of 10 μl of a 10 mM stock of compound in 100% methanol. Serial aliquots (100 μl) were removed and transferred to 200 μl of 75/25 acetonitrile/3% perchloric acid at 0, 1, 2, 5, 10, 20, 30, and 60 minutes. The samples were centrifuged, the supernatants transferred to injection vials, and 20 μl was injected onto the HPLC in-line with a LC/MS single quadropole mass spectrometer. The LC/MS system was run in the negative ion mode. […] The peak response at each time point was expressed as a percentage of that obtained at time=0. A degradation rate constant (kd) was obtained by regression of these percentages from time=0 minutes to […]. An apparent first-order half-life was then be estimated as ln 2/kd. These determinations were completed in duplicate and the average was reported as shown below.

Data set [18] in a line: Portal vein studies in rats. It is filed as in vivo. Conditions: portal vein cannulated rats; oral 100 mg/kg; 5, 15 and 30 minutes post dose; not detected, assay LLOQ. The protocol: Portal Vein Studies in Rats: Systemic exposure of Prodrug 3 was also assessed in portal vein cannulated rats following oral administration of the prodrug at a dose of 100 mg/kg. Whole blood aliquots were stabilized in ice cold acid immediately upon sampling at 5, 15 and 30 minutes post dose. No levels of Prodrug 3 were detected in any of the samples (assay LLOQ of 100 ng/ml).

A short description of data set [19]: Hepatic extraction, rat hepatocytes. It is filed as in vitro ADME. The text has this:
(§1) L. and A. Barve, 1998. Linear correlation of the fraction of oral dose absorbed of 64 drugs between humans and rats. Pharm. Res. 15:1792–1795.). Based upon this correlation, the rat was used to predict human absorption. […] Thus, oral bioavailability assessments in rats should correlate well with the fraction absorbed in humans.

The nature of data set [20]: Hepatic extraction, human hepatocytes. It is filed as in vitro ADME.
Text: as §1

[21] abbreviates: buffer, pH 1.2, Half-life (Hours), solution stability.
[22] abbreviates: buffer, pH 2.5, Half-life (Hours), solution stability.
The mark [23] stands for this setting: buffer, pH 4, Half-life (Hours), solution stability.
Setting [24] is: buffer, pH 5, Half-life (Hours), solution stability.

E. coli TEM-1 beta-lactamase, sequence (P62593 24-286 limits assumed): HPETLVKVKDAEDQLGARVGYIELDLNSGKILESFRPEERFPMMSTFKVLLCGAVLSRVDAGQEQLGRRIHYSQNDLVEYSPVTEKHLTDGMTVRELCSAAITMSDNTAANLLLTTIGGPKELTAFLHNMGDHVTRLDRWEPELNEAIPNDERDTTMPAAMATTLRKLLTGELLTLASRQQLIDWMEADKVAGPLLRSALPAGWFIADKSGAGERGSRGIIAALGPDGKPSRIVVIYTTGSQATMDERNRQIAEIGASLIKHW
BRO-1 and BRO-2 enzymes, sequence (Q59514 whole entry): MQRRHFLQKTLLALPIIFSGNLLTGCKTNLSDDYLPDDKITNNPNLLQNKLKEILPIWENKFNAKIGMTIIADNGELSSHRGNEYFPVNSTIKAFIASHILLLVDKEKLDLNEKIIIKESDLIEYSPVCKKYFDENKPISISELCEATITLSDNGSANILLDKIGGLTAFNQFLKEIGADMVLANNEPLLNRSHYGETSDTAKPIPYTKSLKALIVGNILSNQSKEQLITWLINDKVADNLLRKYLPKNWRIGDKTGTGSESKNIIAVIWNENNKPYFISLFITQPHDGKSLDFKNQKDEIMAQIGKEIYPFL

`CC1(C)S[C@@H]2[C@H](NC(=O)[C@H](N)c3ccc(O)cc3)C(=O)N2[C@H]1C(=O)O` [Amoxicillin, amoxicillin]: in [1], the MIC was 4 to 8 µg/mL (≈ 10.9 to 21.9 µM). The ED50 in [2] was above 100 mg/kg; in [3], 25 mg/kg; in data set [4] it was 3.3 mg/kg; in data set [6], above 200 mg/kg; in data set [7], above 100 mg/kg; in data set [8] it was above 200 mg/kg. Further, in [9], the ED50 was above 100 mg/kg. In addition, the “outcome as a single agent” value in [5] (gerbil otitis media model) was “failed”.
In data set [10], `O=C(O)[C@H]1/C(=C/CO)O[C@@H]2CC(=O)N21` [Clavulanate, lithium clavulanate] returned an IC50 of 110 nM. The “potency retained in suspension” value in data set [11] is given as 40%. Besides, in data set [12] (human), the “fraction that remains unabsorbed from the intestine” value is 40%. The “fraction absorbed into circulation” value in data set [12] is reported as 60%. Further, the “Half-life (Hours), solution stability” value in data set [13] (buffer, 100 μM, pH 2.5) was 1.2 h; in [13] (buffer, 100 μM, pH 4) it was above 24 h; in data set [13] (buffer, 100 μM, pH 5), above 24 h; in [13] (buffer, 100 μM, pH 6.5), above 24 h; in data set [13] (buffer, 100 μM, pH 7.4) it was above 24 h. In addition, the half-life at 100 μM in [13] (setting [21]) was 0.6 h; in [13] (setting [22]), 0.9 h; in [13] (setting [23]), above 24 h; in data set [13] (setting [24]) it was above 24 h; in data set [13] (buffer, pH 6.5, Half-life (Hours), solution stability), above 24 h; in data set [13] (buffer, pH 7.4, Half-life (Hours), solution stability), above 24 h.
Take `CC1(C)[C@H](C(=O)[O-])N2C(=O)[C@@H](CO)[C@H]2S1(=O)=O.[Na+]` [Na-HMPAS, 4-Thia-1-azabicyclo[3,2,0]heptane-2-carboxylic acid, 6-(hydroxymethyl)-3,3-dimethyl-7-oxo-, 4,4-dioxide, monosodium salt, (2S, 5R, 6R)]: half-maximal inhibition in [14] (IC50) required 190 nM. The half-life at 100 μM in data set [13] (pH buffer, pH 1.2, pH 1.2, 25° C., 100 μM, read-out: Half-life (Hours), solution stability) is above 24 h; in [13] (pH buffer, pH 1.2, pH 1.2, 37° C., 100 μM, read-out: Half-life (Hours), solution stability), above 24 h; in [13] (pH buffer, pH 2.5, pH 2.5, 25° C., 100 μM, read-out: Half-life (Hours), solution stability), above 24 h; in [13] (pH buffer, pH 2.5, pH 2.5, 37° C., 100 μM, read-out: Half-life (Hours), solution stability), above 24 h; in data set [13] (pH buffer, pH 4, pH 4.0, 25° C., 100 μM, read-out: Half-life (Hours), solution stability), above 24 h; in [13] (pH buffer, pH 4, pH 4.0, 37° C., 100 μM, read-out: Half-life (Hours), solution stability) it was above 24 h. The half-life at 100 μM is above 24 h in [13] (pH buffer, pH 5, pH 5.0, 25° C., 100 μM, read-out: Half-life (Hours), solution stability); above 24 h in [13] (pH buffer, pH 5, pH 5.0, 37° C., 100 μM, read-out: Half-life (Hours), solution stability); above 24 h in [13] (pH buffer, pH 6.5, pH 6.5, 25° C., 100 μM, read-out: Half-life (Hours), solution stability); above 24 h in data set [13] (pH buffer, pH 6.5, pH 6.5, 37° C., 100 μM, read-out: Half-life (Hours), solution stability); above 24 h in [13] (pH buffer, pH 7.4, pH 7.4, 25° C., 100 μM, read-out: Half-life (Hours), solution stability); above 24 h in data set [13] (pH buffer, pH 7.4, pH 7.4, 37° C., 100 μM, read-out: Half-life (Hours), solution stability).
Turning to `C[C@H](OC(=O)c1ccccc1)OC(=O)[C@@H]1N2C(=O)[C@@H](CO)[C@H]2S(=O)(=O)C1(C)C` [Prodrug 3, 4-Thia-1-azabicyclo[3.2.0]heptane-2-carboxylic acid, 6-(hydroxymethyl)-3,3-dimethyl-7-oxo-, (1R)-1-(benzoyloxy)ethyl ester, 4,4-dioxide (2S, 5R, 6R)], the IC50 in data set [15] (pH 6.0) is above 100000 nM; in data set [15] (pH 7.0) it was 2200 nM. Besides, the ED50 was above 100 mg/kg in data set [2]; above 25 mg/kg in data set [3]; above 25 mg/kg in data set [4]; above 25 mg/kg in data set [5] (Haemophilus influenzae, 96 h, oral, single agent, gerbil otitis media, H. influenzae 54A1218, bacterial clearance day 4); above 25 mg/kg in [6]; above 12.5 mg/kg in data set [7]. For the same molecule, the ED50 in [8] was above 100 mg/kg; in data set [9] it was above 25 mg/kg. Further, the “Potency (percent) in suspension” value is 103% in data set [16] (Day 3); 98% in [16] (Day 5); 104% in data set [16] (Day 7); 91*** percent in data set [16] (Day 10, pH ~6.8 initially, 4.7 by day 10). Further, the “potency maintained in suspension” value in data set [16] (storage at room temperature for 10 days) is recorded as “greater than 90%”. The half-life at 100 μM was 2.8 min in [17] (dog); below 2 min in data set [17] (human); 3.6 min in [17] (monkey); 2.8 min in [17] (mouse); below 2 min in data set [17] (rat); above 24 h in data set [13] (setting [21]). Moreover, the half-life at 100 μM was above 24 h in [13] (setting [22]); above 24 h in data set [13] (setting [23]); above 24 h in data set [13] (setting [24]); 0.55 h in data set [13] (buffer, pH 7, half-life of conversion of the prodrug to active inhibitor); 0.5 h in data set [13] (solution half-life). Further, the “levels of Prodrug 3 in portal vein blood” value in data set [18] is below 100 ng/mL. For the same molecule, the “Half-life (Hours), solution stability” value in data set [13] (buffer, 100 μM, pH 1.2) is above 24 h; in data set [13] (buffer, 100 μM, pH 2.5) it was above 24 h; in data set [13] (buffer, 100 μM, pH 4), above 24 h; in data set [13] (buffer, 100 μM, pH 5), above 24 h.
Molecule `CC1(C)[C@H](C(=O)O)N2C(=O)[C@@H](CO)[C@H]2S1(=O)=O` [Prodrug 6-β-HMPAS, 6-β-hydroxymethylpenicillanic acid sulfone] returned an IC50 in [10] of 320 nM. The hepatic extraction entry in data set [19] and in [20] was “minimal hepatic extraction” in each case.
